The record followed here is patent US6710056B2, “Amidinophenylpyruvic acid derivatives” (Ajinomoto Co., Inc., priority 1999, dated 2004).

Experiment [1] concerns the target T1, activated human blood coagulation factor VII (Homo sapiens, UniProt P08709).
T1 construct: purchased Enzyme Research Laboratories Ltd. (FVIIa); American Diagnostica Laboratories Ltd. (tissue factor)
Briefly: Determination of antagonistic activity to activated human blood coagulation factor VII. It counts as biochemical. The settings on record: FVIIa mixed with tissue factor, substrate S-2288, pH 7.4, initial velocity; read-out: Antagonistic activity to activated blood coagulation factor VII (pIC50 ) (converted). The protocol:
Determination of antagonistic activity to activated human blood coagulation factor VII:
100 nM solution of activated human blood coagulation factor VII (Enzyme Research Laboratories Ltd.) in pH 7.4 tris hydrochloride buffer solution was mixed with 100 nM solution of a tissue factor (American Diagnostica Laboratories Ltd.) in pH 7.4 tris hydrochloride buffer solution in equal amounts, and the obtained mixture was left to stand at room temperature for 30 minutes. 50 μl of 50 mM tris hydrochloride buffer solution having a pH adjusted to 7.4 was added to 5 μl of an aqueous solution of a compound to be tested. Then 10 μl of the previously prepared mixture of 50 nM of each of the solutions of activated human blood coagulation factor VII and tissue factor was added to the obtained mixture, and they were incubated at room temperature for 10 minutes. Then 25 μl of 3.2 mM solution of D-isoleucyl-L-prolyl-L-arginyl-P-nitroanilide hydrochloride (S-2288, Daiichi Pure Chemicals Co., Ltd.) in pH 7.4 tris hydrochloride buffer was added to the obtained mixture. The absorbance was determined and the initial reaction velocity was calculated. A control was prepared by using 5 μl of tris hydrochloride buffer adjusted to pH 7.4 in place of the solution of the compound to be tested. The absorbance was determined with MICROPLATE READER Model 3550-UV (BIO RAD) at a wavelength of 405 nm at intervals of […]. The negative logarithm (pIC50) of the concentration of the sample compound for the 50% inhibition of the activity (initial velocity) of the activated blood coagulation factor VII was determined, and it was employed as the index of the antagonistic activity to the activated blood coagulation factor VII.

The next experiment has as its target T2, human thrombin (Homo sapiens, UniProt P00734).
T2 construct: solution of human thrombin (SIGMA Co. Ltd.); purchased SIGMA Co. Ltd
Briefly: Determination of antagonistic activity to human thrombin. It counts as biochemical. The settings on record: substrate S-2238, pH 8.4, initial velocity, read-out: Antagonistic activity to thrombin (pIC50) (converted). The protocol:
(2) Determination of Antagonistic Activity to Human Thrombin:
130 μl of 100 mM tris hydrochloride buffer adjusted at pH 8.4 was added to 10 μl of an aqueous solution of a sample compound having antagonistic activity to human thrombin. Then 10 μl of a solution of human thrombin (SIGMA Co. Ltd.) adjusted to 2 units/ml with pH 8.4 tris hydrochloride buffer was added to the obtained mixture, and they were incubated at room temperature for 10 minutes. 50 μl of a 0.4 mM solution of D-phenylalanyl-L-pipecolyl-L-arginyl-P-nitroanilide dihydrochloride (S-2238, Daiichi Pure Chemicals Co., Ltd.) in pH 8.4 tris hydrochloride buffer was added to the obtained mixture. The absorbance was determined and the initial reaction velocity was calculated. A control was prepared by using 10 μl of tris hydrochloride buffer adjusted to pH 8.4 in place of the solution of the compound to be tested. The absorbance was determined with MICROPLATE READER Model 3550-UV (BIO RAD) at a wavelength of 405 nm at intervals of 15 seconds for 6 minutes. The negative logarithm (pIC50) of the concentration of the sample compound for the 50% inhibition of the activity (initial velocity) of thrombin was determined, and it was employed as the index of the antagonistic activity to thrombin.

Counter-ions that a name gives are not always drawn. Some results are limits rather than exact numbers.

T1 sequence (P08709 213-466 limits assumed): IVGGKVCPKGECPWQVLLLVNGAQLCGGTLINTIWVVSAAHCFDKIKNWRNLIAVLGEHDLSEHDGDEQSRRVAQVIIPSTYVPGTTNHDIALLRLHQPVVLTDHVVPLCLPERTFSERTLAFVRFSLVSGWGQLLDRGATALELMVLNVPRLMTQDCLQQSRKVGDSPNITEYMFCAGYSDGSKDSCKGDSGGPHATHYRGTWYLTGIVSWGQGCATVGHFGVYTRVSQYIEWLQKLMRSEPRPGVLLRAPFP
T1 sequence (P08709 61-212 limits assumed): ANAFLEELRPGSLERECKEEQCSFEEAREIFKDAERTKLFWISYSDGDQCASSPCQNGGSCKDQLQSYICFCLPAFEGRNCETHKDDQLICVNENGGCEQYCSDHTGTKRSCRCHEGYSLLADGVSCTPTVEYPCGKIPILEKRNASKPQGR
T1 sequence (P13726 33-295 partner): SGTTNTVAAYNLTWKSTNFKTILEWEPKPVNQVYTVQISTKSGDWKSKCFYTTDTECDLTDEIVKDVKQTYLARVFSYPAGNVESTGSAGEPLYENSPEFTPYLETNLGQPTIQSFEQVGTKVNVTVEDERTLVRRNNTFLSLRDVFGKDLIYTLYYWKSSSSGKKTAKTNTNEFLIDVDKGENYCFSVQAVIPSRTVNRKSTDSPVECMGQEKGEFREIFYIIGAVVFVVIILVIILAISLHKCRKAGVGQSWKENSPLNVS

Consider `N=C(N)c1ccc(CC(=O)C(=O)O)c(OC[C@@H](CCC(=O)O)NC(=O)c2ccc3nc(N)ccc3c2)c1` [Compound of Ex. 1, (4R)-4-[(2-Aminoquinoline-6-carbonyl)amino]-5-[5-amidino-2-(2-carboxy-2-oxoethyl)phenoxy]pentanoic acid bistrifluoroacetate], for which the IC50 is 0.126 µM in experiment [1] and above 100 µM on human thrombin.

As to `N=C(N)c1ccc(CC(=O)C(=O)O)c(OCCNC(=O)c2ccc3nc(N)ccc3c2)c1` [Compound of Ex. 2, 3-[4-Amidino-2-[2-(2-aminoquinoline-6-carbonyl)aminoethoxy]phenyl]-2-oxopropionic acid bistrifluoroacetate], the IC50 in experiment [1] is 0.316 µM; on human thrombin, 31.6 µM.

For `Cc1nc2ccc(C(=O)N[C@H](CCC(=O)O)COc3cc(C(=N)N)ccc3CC(=O)C(=O)O)cc2[nH]1` [Compound of Ex. 4, (4R)-4-[(2-Methylbenzimidazole-5-carbonyl)amino]-5-[5-amidino-2-(2-carboxy-2-oxoethyl)phenoxy]pentanoic acid bistrifluoroacetate], the IC50 was 0.2 µM in experiment [1] and above 100 µM on human thrombin.

On to `N=C(N)c1ccc(-c2cccc(C(=O)N[C@H](CCC(=O)O)COc3cc(C(=N)N)ccc3CC(=O)C(=O)O)c2)cc1` [Compound of Ex. 13, (4R)-4-[[3-(4-Amidinophenyl)benzoyl]amino]-5-[5-amidino-2-(2-carboxy-2-oxoethyl)phenoxy]pentanoic acid bistrifluoroacetate], for which the IC50 in experiment [1] was 0.1 µM; on human thrombin, 7.94 µM.

Take `N=C(N)Nc1ccc(C(=O)N[C@H](CCC(=O)O)COc2cc(C(=N)N)ccc2CC(=O)C(=O)O)cc1` [Compound of Ex. 23, (4R)-4-[(4-Guanidinobenzoyl)amino]-5-[5-amidino-2-(2-carboxy-2-oxoethyl)phenoxy]pentanoic acid bistrifluoroacetate]: the results for the IC50 (in experiment [1]; on human thrombin) were 0.251 µM and above 100 µM, respectively.

With `COc1ccc(-c2ccccc2)cc1C(=O)N[C@H](CCC(=O)O)COc1cc(C(=N)N)ccc1CC(=O)C(=O)O` [Compound of Ex. 27, (4R)-4-(2-Methoxy-5-phenylbenzoylamino)-5-[5-amidino-2-(2-carboxy-2-oxoethyl)phenoxy]pentanoic acid trifluoroacetate], the IC50 in experiment [1] is 0.0501 µM.

Regarding `N=C(N)c1ccc(CC(=O)C(=O)O)c(OC[C@@H](CCC(=O)O)NC(=O)c2ccc3nc(N)sc3c2)c1` [Compound of Ex. 28, (4R)-4-[(2-Aminobenzothiazole-6-carbonyl)amino]-5-[5-amidino-2-(2-carboxy-2-oxoethyl)phenoxy]pentanoic acid trifluoroacetate], the IC50 is 0.00501 µM in experiment [1] and above 100 µM at human thrombin.

As for `N=C(N)c1ccc(CC(=O)C(=O)O)c(OCCNC(=O)c2ccc3nc(N)sc3c2)c1` [Compound of Ex. 39, 3-[4-Amidino-2-[2-(2-amino-benzothiazole-6-carbonyl)aminoethoxy]phenyl]-2-oxo-propionic acid trifluoroacetate], the IC50 in experiment [1] is 0.02 µM; at human thrombin, 39.8 µM.

For `N=C(N)c1ccc(CC(=O)C(=O)O)c(OC[C@@H](CCC(=O)O)NC(=O)c2cc3c(cc2Br)CCO3)c1` [Compound of Ex. 45, (4R)-4-[(5-Bromo-2,3-dihydrobenzo[b]furan-6-carbonyl)amino]-5-[5-amidino-2-(2-carboxy-2-oxoethyl)phenoxy]pentanoic acid trifluoroacetate], in experiment [1], the IC50 is 0.1 µM.
